Measurements published in patent US20240199598A1 (MITOIMMUNE THERAPEUTICS INC., priority 2021, published 2024).

What was measured:
[1] = Stability test of Crystalline form III of sulfate (light, dark, 60° C., 40° C./75% RH); format: physicochemical
Procedure: The chemical and physical stability of Crystalline form III were studied under conditions of light, light-shielding, 60° C. and 40° C./75% RH for 1 month. […] In the light stability test, the crystalline form was stored in a light stability test chamber without a lid and thus exposed to a total illuminance of 1.2 million lux-hr, and a sample vial completely covered with an aluminum foil was regarded as a light-shielded control (Dark control). Appearance by visual observation for 2 weeks, 1 month, 2 months and 3 months was recorded, and purity assessment and XPRD data collection for residual solid contents were performed.

[2] = Maintenance of Crystalline form III under melting-cooling, water sorption and desorption, compressive behavior and grinding tests (XRPD); format: physicochemical; conditions: melting-cooling method
Procedure: 10 mg of a sample was placed in a mesh stainless steel basket using SMS DVS Advantage 1. The entire experimental cycle consists of two scans (water sorption and desorption) at a constant temperature (25° C.) and 10% RH intervals in the range of 40 to 90% (60 to 360 minutes for each humidity level).
XRPD result, no novel crystalline form was produced.
As an XRPD result, no novel crystalline form was produced.
As a result of the XRPD test, no novel crystalline form was produced.
As a result of the XRPD test, no novel pattern was produced.

## O=S1(=O)CCN(Cc2cc(NC3CCOCC3)c3[nH]c(-c4ccccc4)cc3c2)CC1 [Crystalline form III]
[1]; 40° C. for 1 month
  Purity decrease: 0.67%
[1]; 40° C./75% RH, 1 M
  Appearance: White powder
  Assay: 102.84%
  Final purity: 98.71%
  Purity change: −0.67%
  XRPD patterns: Pattern III
[1]; 40° C./75% RH, 2 w
  Appearance: White powder
  Assay: 99.42%
  Final purity: 98.77%
  Purity change: −0.61%
  XRPD patterns: Pattern III
[1]; 60° C. for 1 month
  Stability (in words): stable
[1]; 60° C., 1 M
  Appearance: White powder
  Assay: 106.79%
  Final purity: 99.25%
  Purity change: −0.13%
  XRPD patterns: Pattern III
[1]; 60° C., 2 w
  Appearance: White powder
  Assay: 101.08%
  Final purity: 99.24%
  Purity change: −0.14%
  XRPD patterns: Pattern III
[1]; Dark (light-shielded control)
  Appearance: White powder
  Assay: 103.17%
  Final purity: 99.33%
  Purity change: −0.05%
  XRPD patterns: Pattern III
[1]; Initial
  Appearance: White powder
  Final purity: 99.38%
  XRPD patterns: Pattern III
[1]; Light (1.2 million lux-hr)
  Appearance: Taupe powder
  Assay: 101.77%
  Final purity: 99.38%
  Purity change: −0.00%
  XRPD patterns: Pattern III
[1]; light and light-shielding conditions
  Stability (in words): stable
[2]
  Stability of the crystalline form (in words): stable under each test condition
